# Test system: MRSA
# Assay: MIC of methicillin for MRSA isolates grown with glycine or GBE (Table 1)
# Assay type: cell-based, Staphylococcus aureus
smiles,measurement,setting,value
"NCC(=O)O [Glycine, glycine]",strains tested achieving the target MIC,"0.2 M glycine, said of Table 1",50%
same,MIC of methicillin,"CD40 (EMRSA-1), glycine 0.02M (0.15%)",32 mg/L
same,MIC of methicillin,"CD40 (EMRSA-1), glycine 0.2M (1.5%)",4 mg/L
same,MIC of methicillin,"DS09 (EMRSA-1), glycine 0.02M (0.15%)",32 mg/L
same,MIC of methicillin,"DS09 (EMRSA-1), glycine 0.2M (1.5%)",4 mg/L
same,MIC of methicillin,"E15-97 (EMRSA-15), glycine 0.02M (0.15%)",32 mg/L
same,MIC of methicillin,"E15-97 (EMRSA-15), glycine 0.2M (1.5%)",4 mg/L
same,MIC of methicillin,"E16-96 (EMRSA-16), glycine 0.02M (0.15%)",32 mg/L
same,MIC of methicillin,"E16-96 (EMRSA-16), glycine 0.2M (1.5%)",4 mg/L
same,MIC of methicillin,"JF1-32 (EMRSA-1), glycine 0.02M (0.15%)",32 mg/L
same,MIC of methicillin,"JF1-32 (EMRSA-1), glycine 0.2M (1.5%)",4 mg/L
same,MIC of methicillin,"L265, glycine 0.02M (0.15%)",64 mg/L
same,MIC of methicillin,"L265, glycine 0.2M (1.5%)",8 mg/L
same,MIC of methicillin,"L266, glycine 0.02M (0.15%)",64 mg/L
same,MIC of methicillin,"L266, glycine 0.2M (1.5%)",8 mg/L
same,MIC of methicillin,"L267, glycine 0.02M (0.15%)",32 mg/L
same,MIC of methicillin,"L267, glycine 0.2M (1.5%)",8 mg/L
same,MIC of methicillin,"L268, glycine 0.02M (0.15%)",32 mg/L
same,MIC of methicillin,"L268, glycine 0.2M (1.5%)",8 mg/L
same,MIC of methicillin,"L269, glycine 0.02M (0.15%)",16 mg/L
same,MIC of methicillin,"L269, glycine 0.2M (1.5%)",4 mg/L
same,MIC of methicillin,"L270, glycine 0.02M (0.15%)",8 mg/L
same,MIC of methicillin,"L270, glycine 0.2M (1.5%)",4 mg/L
same,MIC of methicillin,"L271, glycine 0.02M (0.15%)",8 mg/L
same,MIC of methicillin,"L271, glycine 0.2M (1.5%)",4 mg/L
same,MIC of methicillin,"L272, glycine 0.02M (0.15%)",16 mg/L
same,MIC of methicillin,"L272, glycine 0.2M (1.5%)",2 mg/L
same,MIC of methicillin,"L273, glycine 0.02M (0.15%)",8 mg/L
same,MIC of methicillin,"L273, glycine 0.2M (1.5%)",4 mg/L
same,MIC of methicillin,"L274, glycine 0.02M (0.15%)",16 mg/L
same,MIC of methicillin,"L274, glycine 0.2M (1.5%)",4 mg/L
same,MIC of methicillin,"L275, glycine 0.02M (0.15%)",32 mg/L
same,MIC of methicillin,"L275, glycine 0.2M (1.5%)",8 mg/L
same,MIC of methicillin,"L276, glycine 0.02M (0.15%)",16 mg/L
same,MIC of methicillin,"L276, glycine 0.2M (1.5%)",4 mg/L
same,MIC of methicillin,"L277, glycine 0.02M (0.15%)",8 mg/L
same,MIC of methicillin,"L277, glycine 0.2M (1.5%)",4 mg/L
same,MIC of methicillin,"L278, glycine 0.02M (0.15%)",64 mg/L
same,MIC of methicillin,"L278, glycine 0.2M (1.5%)",16 mg/L
same,MIC of methicillin,"L279, glycine 0.02M (0.15%)",64 mg/L
same,MIC of methicillin,"L279, glycine 0.2M (1.5%)",2 mg/L
same,MIC of methicillin,"L280, glycine 0.02M (0.15%)",16 mg/L
same,MIC of methicillin,"L280, glycine 0.2M (1.5%)",4 mg/L
same,MIC of methicillin,"L281, glycine 0.02M (0.15%)",32 mg/L
same,MIC of methicillin,"L281, glycine 0.2M (1.5%)",4 mg/L
same,MIC of methicillin,"L282, glycine 0.02M (0.15%)",32 mg/L
same,MIC of methicillin,"L282, glycine 0.2M (1.5%)",4 mg/L
same,MIC of methicillin,"L283, glycine 0.02M (0.15%)",32 mg/L
same,MIC of methicillin,"L283, glycine 0.2M (1.5%)",4 mg/L
same,MIC of methicillin,"L284, glycine 0.02M (0.15%)",32 mg/L
same,MIC of methicillin,"L284, glycine 0.2M (1.5%)",2 mg/L
same,MIC of methicillin,"L285, glycine 0.02M (0.15%)",32 mg/L
same,MIC of methicillin,"L285, glycine 0.2M (1.5%)",4 mg/L
same,MIC of methicillin,"L286, glycine 0.02M (0.15%)",32 mg/L
same,MIC of methicillin,"L286, glycine 0.2M (1.5%)",4 mg/L
same,MIC of methicillin,"L287, glycine 0.02M (0.15%)",32 mg/L
same,MIC of methicillin,"L287, glycine 0.2M (1.5%)",4 mg/L
same,MIC of methicillin,"L288, glycine 0.02M (0.15%)",32 mg/L
same,MIC of methicillin,"L288, glycine 0.2M (1.5%)",4 mg/L
same,MIC of methicillin,"L289, glycine 0.02M (0.15%)",32 mg/L
same,MIC of methicillin,"L289, glycine 0.2M (1.5%)",4 mg/L
same,MIC of methicillin,"L290, glycine 0.02M (0.15%)",32 mg/L
same,MIC of methicillin,"L290, glycine 0.2M (1.5%)",4 mg/L
same,MIC of methicillin,"L291, glycine 0.02M (0.15%)",32 mg/L
same,MIC of methicillin,"L291, glycine 0.2M (1.5%)",4 mg/L
same,MIC of methicillin,"L292, glycine 0.02M (0.15%)",32 mg/L
same,MIC of methicillin,"L292, glycine 0.2M (1.5%)",4 mg/L
same,MIC of methicillin,"L293, glycine 0.02M (0.15%)",32 mg/L
same,MIC of methicillin,"L293, glycine 0.2M (1.5%)",4 mg/L
same,MIC of methicillin,"L294, glycine 0.02M (0.15%)",32 mg/L
same,MIC of methicillin,"L294, glycine 0.2M (1.5%)",4 mg/L
same,MIC of methicillin,"MC01 (EMRSA-1), glycine 0.02M (0.15%)",32 mg/L
same,MIC of methicillin,"MC01 (EMRSA-1), glycine 0.2M (1.5%)",4 mg/L
same,MIC of methicillin,"NCTC 12493, glycine 0.02M (0.15%)",0.12 mg/L
same,MIC of methicillin,"NCTC 12493, glycine 0.2M (1.5%)",0.06 mg/L
same,MIC of methicillin,"PS3-32 (EMRSA-1), glycine 0.02M (0.15%)",32 mg/L
same,MIC of methicillin,"PS3-32 (EMRSA-1), glycine 0.2M (1.5%)",4 mg/L
same,MIC of methicillin,"SN31 (EMRSA-1), glycine 0.02M (0.15%)",32 mg/L
same,MIC of methicillin,"SN31 (EMRSA-1), glycine 0.2M (1.5%)",4 mg/L
same,MIC of methicillin,"ST11 (EMRSA-1), glycine 0.02M (0.15%)",32 mg/L
same,MIC of methicillin,"ST11 (EMRSA-1), glycine 0.2M (1.5%)",4 mg/L
same,MIC of methicillin,"SW2-32 (EMRSA-1), glycine 0.02M (0.15%)",32 mg/L
same,MIC of methicillin,"SW2-32 (EMRSA-1), glycine 0.2M (1.5%)",4 mg/L

# Reference: patent publication US20060040871A1, “Bacterial transforming agent” (priority 2003, published 2006)
